Tested on: Sca+Lin- progenitors
Test: Generation of murine dendritic cells from bone marrow Sca+ progenitors, cell surface phenotype (Example 13)
Assay type: cell-based, C57BL/6 mice
Conditions: 10 μM
Text: Mouse bone marrow from inbred C57BL/6 mice are obtained from Clonetics. Hematopoietic Sca+Lin− progenitors are enriched using SpinSep murine progenitor enrichment cocktail (StemCell Technologies) and cultured in Iscove's MDM with BUI 95000 (StemCell Technologies) in the presence of murine growth factors SCF, Flt3L, GM-CSF and M-CSF for 9 days, to promote expansion of Sca+ cells and a DC precursor phenotype and then in the presence of GM-CSF and TNF-α for 3 additional days to drive the cells to an immature DC phenotype. Enriched Sca+Lin− cells are cultured in the presence of DMSO (0.1%), SelCIDs™ at 10 μM or all-trans retinoic acid (ATRA) (ICN Biomedicals) at 10 μM from day 0. Compounds are added to cells at day 0 and day 9.
Analysis of Murine cell surface phenotype: murine cells are processed for double staining (14 min at RT) at day 9 and day 12; using FITC and PE conjugated mAbs. Antibodies used are from BD Pharmingen: Sca (PE), CD11b (FITC), Gr-1 ([…]), CD86 (PE), CD14 (PE), CD80 (PE), I-Ab (PE), CD40 (PE) and CD32.1/16.1 (FITC) from Miltenyi. Fluorescence analysis is performed on a FACScan flow cytometer ([…]) after acquisition of 10,000 events.

SMILES: CC1=C(/C=C/C(C)=C/C=C/C(C)=C/C(=O)O)C(C)(C)CCC1 [ATRA, all-trans retinoic acid]
- CD80, I-A^b and Sca+ expression (by day 9): marked downregulation
- expression of CD40 and CD80 (by day 12): marked downregulation
